Measured values from patent publication US8791148B2, “Substituted benzimidazolone derivatives, medicaments comprising them and their use” (AbbVie Deutschland GmbH & Co. KG, priority 2006, dated 2014).

Target: T1, human vasopressin V1b receptor (Homo sapiens, UniProt P47901)
T1 construct: expressed in transfected cells; host or cells: CHO-K1 (cell line hV1b-3H2_CHO), membrane preparation
T1 sequence (P47901 1-424): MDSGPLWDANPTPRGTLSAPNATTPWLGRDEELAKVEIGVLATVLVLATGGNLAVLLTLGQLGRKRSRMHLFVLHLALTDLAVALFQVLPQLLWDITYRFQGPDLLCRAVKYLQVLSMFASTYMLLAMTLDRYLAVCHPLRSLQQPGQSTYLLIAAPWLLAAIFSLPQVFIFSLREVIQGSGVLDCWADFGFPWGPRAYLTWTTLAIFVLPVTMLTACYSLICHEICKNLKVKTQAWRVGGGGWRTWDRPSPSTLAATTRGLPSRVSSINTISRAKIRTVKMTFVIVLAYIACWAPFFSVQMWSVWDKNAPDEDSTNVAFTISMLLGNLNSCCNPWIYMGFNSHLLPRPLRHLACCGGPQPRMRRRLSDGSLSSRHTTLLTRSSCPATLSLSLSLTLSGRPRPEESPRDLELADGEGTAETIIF
Assay: Vasopressin V1b receptor binding assay
Conditions: membranes from CHO-K1 cells with stably expressed human V1b receptors; displacement of 1.5 nM 3H-AVP; read-out: V1b receptor affinity (affinity constant Ki)
Protocol: Vasopressin V1b Receptor Binding Assay:
The test substances were dissolved in a concentration of 10^−2 M in DMSO and further diluted to 5×10^−4 M to 5×10^−9 M in DMSO. This series of DMSO predilutions was diluted 1:10 with assay buffer. The substance concentration was again diluted 1:5 in the assay mixture (2% DMSO in the mixture).
The membrane pellet was again homogenized and centrifuged as described and then taken up in 50 mM Tris-HCl, pH 7.4, homogenized and stored in aliquots frozen in liquid nitrogen at −190° C.
The incubation buffer was: 50 mM Tris, 10 mM MgCl2, 0.1% BSA, pH 7.4. […] The nonspecific binding was determined with 1 uM AVP (Bachem #H1780). All determinations were carried out as triplicate determinations. After incubation (60 minutes at room temperature), the free radioligand was removed by vacuum filtration (Skatron cell harvester 7000) through Wathman GF/B glass fiber filter mats, and the filters were transferred into scintillation vials. The liquid scintillation measurement took place in a Tricarb model 2000 or 2200CA instrument (Packard). Conversion of the measured cpm into dpm was carried out with the aid of a standard quench series.
The binding parameters were calculated by nonlinear regression in SAS.
The above assay was used to measure the affinities of the compounds of the invention for the human vasopressin V1b receptor and to determine the affinity constants (Ki).

| SMILES | Ki [nM] |
| --- | --- |
| COc1ccc(C(C(=O)N2CCN(c3ccncc3)CC2)n2c(=O)n(S(=O)(=O)c3ccc(OC)cc3)c3ccc(Cl)cc32)cc1 (stereo not shown) [Example 33, 5-Chloro-1-(4-methoxybenzenesulfonyl)-3-[1-(4-methoxyphenyl)-2-oxo-2-(4-pyridin-4-ylpiperazin-1-yl)-ethyl]-1,3-dihydrobenzimidazol-2-one] | 100 to 500 |
| COc1ccc(S(=O)(=O)n2c(=O)n(C(C(=O)N3CCN(C4CCN(C)CC4)CC3)c3ccccc3)c3cc(Cl)ccc32)cc1 (stereo not shown) [Example 55, 5-Chloro-1-(4-methoxybenzenesulfonyl)-3-{2-[4-(1-methylpiperidin-4-yl)piperazin-1-yl]-2-oxo-1-phenylethyl}-1,3-dihydrobenzimidazol-2-one] | 100 to 500 |
| CCCN1CCN(C2CCN(C(=O)C(c3cccc(OC)c3)n3c(=O)n(S(=O)(=O)c4ccc(OC)cc4)c4ccc(Cl)cc43)C2)CC1 (stereo not shown) [Example 79, 5-Chloro-1-(4-methoxybenzenesulfonyl)-3-{1-(3-methoxyphenyl)-2-oxo-2-[3-(4-propylpiperazin-1-yl)pyrrolidin-1-yl]-ethyl}-1,3-dihydrobenzimidazol-2-one] | < 100 |
| COc1ccc(S(=O)(=O)n2c(=O)n(C(C(=O)N(C)CCCN(C)C)c3ccccc3)c3cc(Cl)ccc32)cc1 (stereo not shown) [Example 117, 2-[6-Chloro-3-(4-methoxybenzenesulfonyl)-2-oxo-2,3-dihydrobenzimidazol-1-yl]-N-(3-dimethylaminopropyl)-N-methyl-2-phenylacetamide] | 100 to 500 |
| COc1ccc(S(=O)(=O)n2c(=O)n(C(C(=O)NCCN3CCN(C(=O)OC(C)(C)C)CC3)c3ccccc3)c3cc(Cl)ccc32)cc1 (stereo not shown) [Example 130, tert-Butyl 4-(2-{2-[6-chloro-3-(4-methoxybenzenesulfonyl)-2-oxo-2,3-dihydrobenzimidazol-1-yl]-2-phenylacetylamino}ethyl)piperazine-1-carboxylate] | 500 to 10000 |
| COc1ccc(S(=O)(=O)n2c(=O)n(C(C(=O)N(C)C)c3ccccc3)c3cc(Cl)ccc32)cc1 (stereo not shown) [Example 97, 2-[6-Chloro-3-(4-methoxybenzenesulfonyl)-2-oxo-2,3-dihydrobenzimidazol-1-yl]-N,N-dimethyl-2-phenylacetamide] | 500 to 10000 |
| CCCN1CCC(N2CCN(C(=O)C(c3ccccc3)n3c(=O)n(S(=O)(=O)c4ccc(OC)cc4)c4ccc(Cl)cc43)CC2)CC1 (stereo not shown) [Example 129, 5-Chloro-1-(4-methoxybenzenesulfonyl)-3-{2-oxo-1-phenyl-2-[4-(1-propylpiperidin-4-yl)piperazin-1-yl]ethyl}-1,3-dihydrobenzimidazol-2-one] | 100 to 500 |
| CCCN1CCN(C2CCN(C(=O)C(c3ccccc3)n3c(=O)n(S(=O)(=O)c4ccc(OC)cc4)c4cc(Cl)ccc43)C2)CC1 (stereo not shown) [Example 74, 5-Chloro-3-(4-methoxybenzenesulfonyl)-1-{2-oxo-1-phenyl-2-[3-(4-propylpiperazin-1-yl)-pyrrolidin-1-yl]ethyl}-1,3-dihydrobenzimidazol-2-one] | < 100 |
| COc1ccc(S(=O)(=O)n2c(=O)n(C(C(=O)N3CCCC3C(=O)N(C)C)c3ccccc3)c3cc(Cl)ccc32)cc1 (stereo not shown) [Example 93, 1-{2-[6-Chloro-3-(4-methoxybenzenesulfonyl)-2-oxo-2,3-dihydrobenzimidazol-1-yl]-2-phenylacetyl}pyrrolidine-2-dimethylcarboxamide] | 100 to 500 |

The next lines start with the values.

| Ki [nM] | SMILES |
| --- | --- |
| < 100 | COc1ccc(S(=O)(=O)n2c(=O)n(C(C(=O)N3CCC[C@H](N4CCNCC4)C3)c3ccccc3)c3cc(C#N)ccc32)cc1 (stereo partly drawn) [Example 195, 1-(4-Methoxybenzenesulfonyl)-2-oxo-3-[2-oxo-1-phenyl-2-((S)-3-piperazin-1-ylpiperidin-1-yl)ethyl]-2,3-dihydro-1H-benzimidazole-5-carbonitrile] |
| < 100 | COc1ccc(S(=O)(=O)n2c(=O)n(C(C(=O)N3CC[C@@H](N4CCN(C)CC4)C3)c3ccccc3)c3cc(Cl)ccc32)cc1 (stereo partly drawn) [Example 159, 5-Chloro-1-(4-methoxybenzenesulfonyl)-3-{2-[(R)-3-(4-methylpiperazin-1-yl)pyrrolidin-1-yl]-2-oxo-1-phenylethyl}-1,3-dihydrobenzimidazol-2-one] |
| < 100 | COc1ccc(S(=O)(=O)n2c(=O)n(C(C(=O)N3CC[C@H](N4CCNCC4)C3)c3ccccc3)c3cc(Cl)ccc32)cc1 (stereo partly drawn) [Example 149, 5-Chloro-1-(4-methoxybenzenesulfonyl)-3-[2-oxo-1-phenyl-2-((S)-3-piperazin-1-ylpyrrolidin-1-yl)ethyl]-1,3-dihydrobenzimidazol-2-one] |
| 100 to 500 | CCCN1CCN([C@H]2CCN(C(=O)C(c3ccccc3)n3c(=O)n(S(=O)(=O)c4ccc(C)cn4)c4ccc(C#N)cc43)C2)CC1 (stereo partly drawn) [Example 204, 1-(5-Methylpyridine-2-sulfonyl)-2-oxo-3-{2-oxo-1-phenyl-2-[(S)-3-(4-propylpiperazin-1-yl)pyrrolidin-1-yl]ethyl}-2,3-dihydro-1H-benzimidazole-5-carbonitrile] |
| 100 to 500 | COc1ccc(S(=O)(=O)n2c(=O)n(C(C(=O)N3CC[C@H](N)C3)c3ccccc3)c3cc(Cl)ccc32)cc1 (stereo partly drawn) [Example 168, 3-[2-((S)-3-Aminopyrrolidin-1-yl)-2-oxo-1-phenylethyl]-5-chloro-1-(4-methoxybenzenesulfonyl)-1,3-dihydrobenzimidazol-2-one] |
| 500 to 10000 | CCCN1CCN([C@H]2CCN(C(=O)C(c3ccccc3)n3c(=O)n(S(=O)(=O)c4ccccc4OC)c4ccc(C#N)cc43)C2)CC1 (stereo partly drawn) [Example 205, 1-(2-Methoxybenzenesulfonyl)-2-oxo-3-{2-oxo-1-phenyl-2-[(S)-3-(4-propylpiperazin-1-yl)pyrrolidin-1-yl]ethyl}-2,3-dihydro-1H-benzimidazole-5-carbonitrile] |
| < 100 | CCCN1CCN([C@H]2CCN(C(=O)C(c3ccccc3)n3c(=O)n(S(=O)(=O)c4ccc(OC)cc4)c4ccc(C#N)cc43)C2)CC1 (stereo partly drawn) [Example 161, 1-(4-Methoxybenzenesulfonyl)-2-oxo-3-{2-oxo-1-phenyl-2-[(S)-3-(4-propylpiperazin-1-yl)pyrrolidin-1-yl]ethyl}-2,3-dihydro-1H-benzimidazole-5-carbonitrile] |
| < 100 | COc1ccc(S(=O)(=O)n2c(=O)n(C(C(=O)N3CC[C@H](N4CCN(C(C)C)CC4)C3)c3ccccc3)c3cc(C#N)ccc32)cc1 (stereo partly drawn) [Example 189, 3-{2-[(S)-3-(4-Isopropylpiperazin-1-yl)pyrrolidin-1-yl]-2-oxo-1-phenylethyl}-1-(4-methoxybenzenesulfonyl)-2-oxo-2,3-dihydro-1H-benzimidazole-5-carbonitrile] |
| 100 to 500 | COc1ccc(S(=O)(=O)n2c(=O)n(C(C(=O)N3CC[C@@H](N4CCN(Cc5ccccc5)CC4)C3)c3ccccc3)c3cc(Cl)ccc32)cc1 (stereo partly drawn) [Example 142, 3-{2-[(R)-3-(4-Benzylpiperazin-1-yl)-pyrrolidin-1-yl]-2-oxo-1-phenylethyl}-5-chloro-1-(4-methoxybenzenesulfonyl)-1,3-dihydrobenzimidazol-2-on] |
| 100 to 500 | CCCN1CCN([C@H]2CCN(C(=O)C(c3ccccc3)n3c(=O)n(S(=O)(=O)c4ccc(C#N)cc4)c4ccc(C#N)cc43)C2)CC1 (stereo partly drawn) [Example 215, 1-(4-Cyano-benzenesulfonyl)-2-oxo-3-{2-oxo-1-phenyl-2-[(S)-3-(4-propylpiperazin-1-yl)-pyrrolidin-1-yl]ethyl}-2,3-dihydro-1H-benzoimidazole-5-carbonitrile] |
